Assay results taken from patent US11708344B2, “Flavone derivatives for the treatment and prophylaxis of hepatitis B virus disease” (Hoffmann-La Roche Inc., priority 2018, dated 2023).

Experiments:
[1] = tested on: HBeAg (surrogate marker for cccDNA) in HepDES19 cells; assay: Engineered HepDES19 primary screen assay (HBeAg ELISA); type: cell-based, HBV; settings: Hepatitis B virus, HepDES19, 120 h, read-out: IC50 (HBeAg level, HepDES19 primary screen assay), HepDES19 cells, 5 days compound incubation, HBeAg ELISA
Procedure, shortened: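 IC50 values come from 4-parameter logistic fits of HBeAg ELISA signal, the cccDNA surrogate, with CCK-8 run in parallel for viability. Compounds at half-log dilutions with 1% DMSO were applied for 5 days at 37 °C to HepDES19 cells previously cultured 8 days without Tet.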

[2] = Human microsome stability assay; type: in vitro ADME; settings: human liver microsomes, 1 μM test compound, 0.5 mg/mL microsomal protein, 37° C., pH 7.4, 0-30 minutes
Description: The human microsomal stability assay is used for early assessment of metabolic stability of a test compound in human liver microsomes.
Human liver microsomes (Cat. NO.: 452117, Corning, USA; Cat. NO.: H2610, Xenotech, USA) were preincubated with test compound for 10 minutes at 37° C. in 100 mM potassium phosphate buffer, pH 7.4. The reactions were initiated by adding NADPH regenerating system. The final incubation mixtures contained 1 μM test compound, 0.5 mg/mL liver microsomal protein, 1 mM MgCl2, 1 mM NADP, 1 unit/mL isocitric dehydrogenase and 6 mM isocitric acid in 100 mM potassium phosphate buffer, pH 7.4. After incubation times of 0, 3, 6, 9, 15 and 30 minutes at 37° C., 300 μL of cold ACN (including internal standard) was added to 100 μL incubation mixture to terminate the reaction. Following precipitation and centrifugation, the amount of compound remaining in the samples was determined by LC-MS/MS. Controls of no NADPH regenerating system at zero and 30 minutes were also prepared and analyzed.

O=c1cc(-c2ccc(Br)cc2OCCO[C@H]2C[C@@H](C(=O)O)C2)oc2c(Cl)cc(F)cc12 [Example C028, Cis-3-[2-[5-bromo-2-(8-chloro-6-fluoro-4-oxo-chromen-2-yl)phenoxy]ethoxy]cyclobutanecarboxylic acid]
IC50 [1]: 3.32 µM | Clearance of Human microsome [2]: 8.85 mL/min/kg

Cc1cc(-c2cc(=O)c3cccc(Cl)c3o2)c(OCC(=O)N2CC[C@H](O)C2)cc1Br [Example A088, 2-[4-bromo-2-[2-[(3S)-3-hydroxypyrrolidin-1-yl]-2-oxo-ethoxy]-5-methyl-phenyl]-8-chloro-chromen-4-one]
IC50 [1]: 1.11 µM | Clearance of Human microsome [2]: 7.09 mL/min/kg

COc1ccc(OCCOC2CC(C(=O)O)C2)c(-c2cc(=O)c3cccc(Cl)c3o2)c1 (stereo not drawn) [Example C060, 3-[2-[2-(8-chloro-4-oxo-chromen-2-yl)-4-methoxy-phenoxy]ethoxy]cyclobutanecarboxylic acid]
IC50 [1]: 9.81 µM | Clearance of Human microsome [2]: 6.15 mL/min/kg

COc1ccc(-c2cc(=O)c3cccc(Cl)c3o2)c(OCCO[C@H]2C[C@H](C(=O)O)C2)c1 [Example C039-B, Trans-3-[2-[2-(8-chloro-4-oxo-chromen-2-yl)-5-methoxy-phenoxy]ethoxy]cyclobutanecarboxylic acid]
IC50 [1]: 17.5 µM | Clearance of Human microsome [2]: 6.15 mL/min/kg

COc1ccc2c(=O)cc(-c3ccc(C(F)(F)F)cc3OCCC(=O)O)oc2c1Cl [Example A032, 3-[2-(8-chloro-7-methoxy-4-oxo-chromen-2-yl)-5-(trifluoromethyl)phenoxy]propanoic acid]
IC50 [1]: 13 µM | Clearance of Human microsome [2]: 6.15 mL/min/kg

O=C(O)[C@@H]1CC[C@@H](Oc2cc(Br)ccc2-c2cc(=O)c3cccc(Cl)c3o2)C1 (relative stereo) [Example B028-B, Trans-3-[5-bromo-2-(8-chloro-4-oxo-chromen-2-yl)phenoxy]cyclopentanecarboxylic acid]
IC50 [1]: 0.213 µM | Clearance of Human microsome [2]: 9.98 mL/min/kg

Cc1ccc(-c2cc(=O)c3cccc(Cl)c3o2)c(OCC(=O)N2CCC[C@@H]2C(=O)NS(C)(=O)=O)c1 [Example A094, (2R)-1-[2-[2-(8-chloro-4-oxo-chromen-2-yl)-5-methyl-phenoxy]acetyl]-N-methylsulfonyl-pyrrolidine-2-carboxamide]
IC50 [1]: 0.858 µM | Clearance of Human microsome [2]: 6.15 mL/min/kg

COC(=O)C1CC(OCCOc2cc(Br)ccc2-c2cc(=O)c3cccc(Cl)c3o2)C1 (stereo not drawn) [Example C003a, methyl 3-[2-[5-bromo-2-(8-chloro-4-oxo-chromen-2-yl)phenoxy]ethoxy]cyclobutanecarboxylate]
IC50 [1]: 0.4 µM | Clearance of Human microsome [2]: 6.15 mL/min/kg

Cc1cc(-c2cc(=O)c3cccc(Cl)c3o2)c(OCC(=O)N2CCC[C@H]2C(=O)O)cc1Br [Example A080, (2S)-1-[2-[5-bromo-2-(8-chloro-4-oxo-chromen-2-yl)-4-methyl-phenoxy]acetyl]pyrrolidine-2-carboxylic acid]
IC50 [1]: 17.5 µM | Clearance of Human microsome [2]: 6.15 mL/min/kg

O=C(O)COCCCOc1cc(Cl)ccc1-c1cc(=O)c2cccc(Cl)c2o1 [Example C009, 2-[3-[5-chloro-2-(8-chloro-4-oxo-chromen-2-yl)phenoxy]propoxy]acetic acid]
IC50 [1]: 2.66 µM | Clearance of Human microsome [2]: 6.15 mL/min/kg

O=C(COCCCOc1cc(C(F)(F)F)ccc1-c1cc(=O)c2cccc(Cl)c2o1)NS(=O)(=O)C1CC1 [Example C117, 2-[3-[2-(8-chloro-4-oxo-chromen-2-yl)-5-(trifluoromethyl)phenoxy]propoxy]-N-cyclopropylsulfonyl-acetamide]
IC50 [1]: 2.52 µM | Clearance of Human microsome [2]: 7.45 mL/min/kg

O=c1cc(-c2cc3c(cc2OCCO[C@H]2C[C@@H](C(=O)O)C2)OC(F)(F)O3)oc2c(Cl)cccc12 [Example C102, Cis-3-[2-[[6-(8-chloro-4-oxo-chromen-2-yl)-2,2-difluoro-1,3-benzodioxol-5-yl]oxy]ethoxy]cyclobutanecarboxylic acid]
IC50 [1]: 7 µM | Clearance of Human microsome [2]: 7.11 mL/min/kg

O=c1cc(-c2cccc(Br)c2OCCO[C@H]2C[C@@H](C(=O)O)C2)oc2c(Cl)cc(F)cc12 [Example C070, Cis-3-[2-[2-bromo-6-(8-chloro-6-fluoro-4-oxo-chromen-2-yl)phenoxy]ethoxy]cyclobutanecarboxylic acid]
IC50 [1]: 13.1 µM | Clearance of Human microsome [2]: 9.42 mL/min/kg

COc1cc(-c2cc(=O)c3cccc(Cl)c3o2)c(O[C@H]2C[C@@H](C(=O)NS(C)(=O)=O)C2)cc1Br [Example B053-A, Cis-3-[5-bromo-2-(8-chloro-4-oxo-chromen-2-yl)-4-methoxy-phenoxy]-N-methylsulfonyl-cyclobutanecarboxamide]
IC50 [1]: 3.36 µM | Clearance of Human microsome [2]: 6.15 mL/min/kg

O=C(O)[C@@H]1C[C@H](Oc2cc(Br)ccc2-c2cc(=O)c3cccc(Cl)c3o2)CN1C(=O)c1ccccc1 [Example B086]
IC50 [1]: 4.89 µM | Clearance of Human microsome [2]: 6.15 mL/min/kg

O=C(O)CCCCOc1cc(C(F)(F)F)ccc1-c1cc(=O)c2cccc(Cl)c2o1 [Example A065, 5-[2-(8-chloro-4-oxo-chromen-2-yl)-5-(trifluoromethyl)phenoxy]pentanoic acid]
IC50 [1]: 1.9 µM | Clearance of Human microsome [2]: 6.15 mL/min/kg

Cc1cc(-c2cc(=O)c3cccc(Cl)c3o2)c(OCC(=O)N2CCC[C@@H]2C(=O)O)cc1Br [Example A079, (2R)-1-[2-[5-bromo-2-(8-chloro-4-oxo-chromen-2-yl)-4-methyl-phenoxy]acetyl]pyrrolidine-2-carboxylic acid]
IC50 [1]: 19 µM | Clearance of Human microsome [2]: 6.6 mL/min/kg

COc1cc(-c2cc(=O)c3cccc(Cl)c3o2)c(O[C@H]2C[C@@H](C(=O)NS(=O)(=O)C3CC3)C2)cc1Br [Example B054, Cis-3-[5-bromo-2-(8-chloro-4-oxo-chromen-2-yl)-4-methoxy-phenoxy]-N-cyclopropylsulfonyl-cyclobutanecarboxamide]
IC50 [1]: 1.65 µM | Clearance of Human microsome [2]: 6.15 mL/min/kg

COc1cc(OCCO[C@H]2C[C@@H](C(=O)O)C2)c(-c2cc(=O)c3cccc(Cl)c3o2)cc1OC [Example C072, Cis-3-[2-[2-(8-chloro-4-oxo-chromen-2-yl)-4,5-dimethoxy-phenoxy]ethoxy]cyclobutanecarboxylic acid]
IC50 [1]: 6.31 µM | Clearance of Human microsome [2]: 6.15 mL/min/kg

O=C(O)[C@@H]1CCN(C(=O)COCCOc2cc(Br)ccc2-c2cc(=O)c3cccc(Cl)c3o2)C1 [Example C111, (3R)-1-[2-[2-[5-bromo-2-(8-chloro-4-oxo-chromen-2-yl)phenoxy]ethoxy]acetyl]pyrrolidine-3-carboxylic acid]
IC50 [1]: 1.25 µM | Clearance of Human microsome [2]: 6.15 mL/min/kg

Cc1ccc(-c2cc(=O)c3cccc(Cl)c3o2)c(OCC(=O)N2CCC[C@@H]2C(=O)O)c1 [Example A077, (2R)-1-[2-[2-(8-chloro-4-oxo-chromen-2-yl)-5-methyl-phenoxy]acetyl]pyrrolidine-2-carboxylic acid]
IC50 [1]: 9 µM | Clearance of Human microsome [2]: 8.57 mL/min/kg

O=C(O)CCOc1cc(OC(F)(F)F)ccc1-c1cc(=O)c2ccc(C(F)(F)F)c(Cl)c2o1 [Example A042, 3-[2-[8-chloro-4-oxo-7-(trifluoromethyl)chromen-2-yl]-5-(trifluoromethoxy)phenoxy]propanoic acid]
IC50 [1]: 17.8 µM | Clearance of Human microsome [2]: 6.15 mL/min/kg

CCOc1ccc(OCCO[C@H]2C[C@H](C(=O)O)C2)c(-c2cc(=O)c3cccc(Cl)c3o2)c1 [Example C051-B, Trans-3-[2-[2-(8-chloro-4-oxo-chromen-2-yl)-4-ethoxy-phenoxy]ethoxy]cyclobutanecarboxylic acid]
IC50 [1]: 9.41 µM | Clearance of Human microsome [2]: 7.85 mL/min/kg

COc1cc(-c2cc(=O)c3cccc(Cl)c3o2)c(OCCO[C@H]2C[C@@H](C(=O)O)C2)cc1OCC1CC1 [Example C079, Cis-3-[2-[2-(8-chloro-4-oxo-chromen-2-yl)-5-(cyclopropylmethoxy)-4-methoxy-phenoxy]ethoxy]cyclobutanecarboxylic acid]
IC50 [1]: 5.5 µM | Clearance of Human microsome [2]: 6.15 mL/min/kg

O=C(COCCOc1cc(Br)ccc1-c1cc(=O)c2cccc(Cl)c2o1)NS(=O)(=O)C1CC1 [Example C116, 2-[2-[5-bromo-2-(8-chloro-4-oxo-chromen-2-yl)phenoxy]ethoxy]-N-cyclopropylsulfonyl-acetamide]
IC50 [1]: 9.13 µM | Clearance of Human microsome [2]: 6.15 mL/min/kg

CC1(C)C(=O)Nc2cc(-c3cc(=O)c4cccc(Cl)c4o3)c(OCCO[C@H]3C[C@@H](C(=O)O)C3)cc21 [Example C092, cis-3-[2-[6-(8-chloro-4-oxo-chromen-2-yl)-3,3-dimethyl-2-oxo-indolin-5-yl]oxyethoxy]cyclobutanecarboxylic acid]
IC50 [1]: 11.2 µM | Clearance of Human microsome [2]: 6.15 mL/min/kg

COc1c(-c2ccc(Br)cc2OCCO[C@H]2C[C@@H](C(=O)O)C2)oc2c(Cl)cccc2c1=O [Example C101, Cis-3-[2-[5-bromo-2-(8-chloro-3-methoxy-4-oxo-chromen-2-yl)phenoxy]ethoxy]cyclobutanecarboxylic acid]
IC50 [1]: 2.38 µM | Clearance of Human microsome [2]: 6.15 mL/min/kg
